Source: ChEMBL document CHEMBL3526031, “Mechanistic studies on the absorption and disposition of scutellarin in humans: selective OATP2B1-mediated hepatic uptake is a likely key determinant for its unique pharmacokinetic characteristics” (Drug Metab Dispos, 2012)

Columns and labels:
[1] = Drug metabolism in human intestinal microsomes assessed as formation of scutellarein-6,7-diglucuronide after 7 mins by HPLC/UV analysis; format: ADME, Intestine, Microsome; settings: for Km / Vmax: human, microsomes, 7 min
[2] = Ratio of Vmax to Km for drug metabolism in human intestinal microsomes assessed as formation of scutellarein-6,7-diglucuronide after 7 mins by HPLC/UV analysis; format: ADME, Intestine, Microsome
Liver microsome [3] = test: Drug metabolism in human liver microsomes assessed as formation of scutellarein-6,7-diglucuronide after 7 mins by HPLC/UV analysis; format: ADME; settings: for Km / Vmax: human, microsomes, 7 min
Liver microsome [4] = test: Ratio of Vmax to Km for drug metabolism in human liver microsomes assessed as formation of scutellarein-6,7-diglucuronide after 7 mins by HPLC/UV analysis; format: ADME
[5] = Drug metabolism in rat intestinal microsomes assessed as formation of scutellarein-6,7-diglucuronide after 7 mins by HPLC/UV analysis; format: ADME, Intestine, Microsome; settings: for Km / Vmax: rat, microsomes, 7 min
[6] = Ratio of Vmax to Km for drug metabolism in rat intestinal microsomes assessed as formation of scutellarein-6,7-diglucuronide after 7 mins by HPLC/UV analysis; format: ADME, Intestine, Microsome
Liver microsome [7] = test: Drug metabolism in rat liver microsomes assessed as formation of scutellarein-6,7-diglucuronide after 7 mins by HPLC/UV analysis; format: ADME; settings: for Km / Vmax: rat, microsomes, 7 min
Liver microsome [8] = test: Ratio of Vmax to Km for drug metabolism in rat liver microsomes assessed as formation of scutellarein-6,7-diglucuronide after 7 mins by HPLC/UV analysis; format: ADME
[9] = target: T1, Broad substrate specificity ATP-binding cassette transporter ABCG2 (Homo sapiens, UniProt Q9UNQ0); test: Drug uptake assessed as human BCRP-mediated drug transport using inside-out membrane vesicles by measuring +ATP/-ATP ratio by LC-MS/MS analysis; format: ADME
T1 sequence (Q9UNQ0 whole entry): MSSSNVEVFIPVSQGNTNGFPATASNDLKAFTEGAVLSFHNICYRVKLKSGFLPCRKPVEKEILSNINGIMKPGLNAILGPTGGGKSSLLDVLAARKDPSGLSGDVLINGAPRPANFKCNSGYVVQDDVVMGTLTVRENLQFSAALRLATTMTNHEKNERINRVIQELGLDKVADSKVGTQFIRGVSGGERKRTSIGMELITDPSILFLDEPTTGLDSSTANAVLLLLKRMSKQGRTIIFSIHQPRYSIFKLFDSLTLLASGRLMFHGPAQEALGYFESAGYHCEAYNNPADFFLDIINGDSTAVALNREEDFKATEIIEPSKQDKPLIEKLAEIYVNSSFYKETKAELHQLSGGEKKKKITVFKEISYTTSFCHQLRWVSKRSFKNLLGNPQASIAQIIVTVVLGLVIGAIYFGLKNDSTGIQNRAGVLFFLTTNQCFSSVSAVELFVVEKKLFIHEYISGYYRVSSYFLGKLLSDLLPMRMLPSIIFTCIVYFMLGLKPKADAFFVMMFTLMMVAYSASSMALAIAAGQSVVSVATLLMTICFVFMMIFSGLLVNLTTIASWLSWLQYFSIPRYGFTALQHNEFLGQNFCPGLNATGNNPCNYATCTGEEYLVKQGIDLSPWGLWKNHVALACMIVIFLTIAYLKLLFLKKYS

[10] = target: T2, ATP-binding cassette sub-family C member 2 (Homo sapiens, UniProt Q92887); test: Drug uptake assessed as human MRP2-mediated drug transport using inside-out membrane vesicles by measuring +ATP/-ATP ratio by LC-MS/MS analysis; format: ADME
[11] = target: T3, UDP-glucuronosyltransferase 1A10 (Homo sapiens, UniProt Q9HAW8); test: Drug metabolism assessed as human recombinant UGT1A10-mediated formation of scutellarein-6,7-diglucuronide after 25 mins by HPLC/UV analysis; format: ADME
T3 sequence (Q9HAW8 whole entry): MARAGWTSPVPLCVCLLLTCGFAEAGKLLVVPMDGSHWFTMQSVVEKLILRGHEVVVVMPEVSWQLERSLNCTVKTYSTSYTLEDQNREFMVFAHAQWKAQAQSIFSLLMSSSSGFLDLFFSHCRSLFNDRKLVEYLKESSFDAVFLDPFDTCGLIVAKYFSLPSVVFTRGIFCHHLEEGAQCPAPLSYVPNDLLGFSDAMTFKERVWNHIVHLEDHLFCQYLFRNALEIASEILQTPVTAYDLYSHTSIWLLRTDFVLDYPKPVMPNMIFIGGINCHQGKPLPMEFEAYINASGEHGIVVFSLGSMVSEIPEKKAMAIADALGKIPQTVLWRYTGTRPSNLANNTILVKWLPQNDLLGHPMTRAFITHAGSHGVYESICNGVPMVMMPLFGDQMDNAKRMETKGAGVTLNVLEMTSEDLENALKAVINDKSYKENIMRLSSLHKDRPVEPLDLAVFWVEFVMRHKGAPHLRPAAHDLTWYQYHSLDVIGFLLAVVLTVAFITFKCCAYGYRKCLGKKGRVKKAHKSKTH

[12] = target: T2, ATP-binding cassette sub-family C member 2; test: Inhibition of human MRP2-mediated estradiol-17beta-D-glucuronide formation using inside-out membrane vesicles by LC-MS/MS analysis
[13] = target: T1, Broad substrate specificity ATP-binding cassette transporter ABCG2; test: Inhibition of human BCRP-mediated methotrexate transport using inside-out membrane vesicles by LC-MS/MS analysis; format: ADME
[14] = target: ATP-binding cassette sub-family C member 3 (Homo sapiens, UniProt O15438); test: Inhibition of human MRP3-mediated estradiol-17beta-D-glucuronide formation using inside-out membrane vesicles by LC-MS/MS analysis
[15] = target: Multidrug resistance-associated protein 1 (Homo sapiens, UniProt P33527); test: Inhibition of human MRP1-mediated estradiol-17beta-D-glucuronide formation using inside-out membrane vesicles by LC-MS/MS analysis
Sequence of Multidrug resistance-associated protein 1 (P33527 whole entry): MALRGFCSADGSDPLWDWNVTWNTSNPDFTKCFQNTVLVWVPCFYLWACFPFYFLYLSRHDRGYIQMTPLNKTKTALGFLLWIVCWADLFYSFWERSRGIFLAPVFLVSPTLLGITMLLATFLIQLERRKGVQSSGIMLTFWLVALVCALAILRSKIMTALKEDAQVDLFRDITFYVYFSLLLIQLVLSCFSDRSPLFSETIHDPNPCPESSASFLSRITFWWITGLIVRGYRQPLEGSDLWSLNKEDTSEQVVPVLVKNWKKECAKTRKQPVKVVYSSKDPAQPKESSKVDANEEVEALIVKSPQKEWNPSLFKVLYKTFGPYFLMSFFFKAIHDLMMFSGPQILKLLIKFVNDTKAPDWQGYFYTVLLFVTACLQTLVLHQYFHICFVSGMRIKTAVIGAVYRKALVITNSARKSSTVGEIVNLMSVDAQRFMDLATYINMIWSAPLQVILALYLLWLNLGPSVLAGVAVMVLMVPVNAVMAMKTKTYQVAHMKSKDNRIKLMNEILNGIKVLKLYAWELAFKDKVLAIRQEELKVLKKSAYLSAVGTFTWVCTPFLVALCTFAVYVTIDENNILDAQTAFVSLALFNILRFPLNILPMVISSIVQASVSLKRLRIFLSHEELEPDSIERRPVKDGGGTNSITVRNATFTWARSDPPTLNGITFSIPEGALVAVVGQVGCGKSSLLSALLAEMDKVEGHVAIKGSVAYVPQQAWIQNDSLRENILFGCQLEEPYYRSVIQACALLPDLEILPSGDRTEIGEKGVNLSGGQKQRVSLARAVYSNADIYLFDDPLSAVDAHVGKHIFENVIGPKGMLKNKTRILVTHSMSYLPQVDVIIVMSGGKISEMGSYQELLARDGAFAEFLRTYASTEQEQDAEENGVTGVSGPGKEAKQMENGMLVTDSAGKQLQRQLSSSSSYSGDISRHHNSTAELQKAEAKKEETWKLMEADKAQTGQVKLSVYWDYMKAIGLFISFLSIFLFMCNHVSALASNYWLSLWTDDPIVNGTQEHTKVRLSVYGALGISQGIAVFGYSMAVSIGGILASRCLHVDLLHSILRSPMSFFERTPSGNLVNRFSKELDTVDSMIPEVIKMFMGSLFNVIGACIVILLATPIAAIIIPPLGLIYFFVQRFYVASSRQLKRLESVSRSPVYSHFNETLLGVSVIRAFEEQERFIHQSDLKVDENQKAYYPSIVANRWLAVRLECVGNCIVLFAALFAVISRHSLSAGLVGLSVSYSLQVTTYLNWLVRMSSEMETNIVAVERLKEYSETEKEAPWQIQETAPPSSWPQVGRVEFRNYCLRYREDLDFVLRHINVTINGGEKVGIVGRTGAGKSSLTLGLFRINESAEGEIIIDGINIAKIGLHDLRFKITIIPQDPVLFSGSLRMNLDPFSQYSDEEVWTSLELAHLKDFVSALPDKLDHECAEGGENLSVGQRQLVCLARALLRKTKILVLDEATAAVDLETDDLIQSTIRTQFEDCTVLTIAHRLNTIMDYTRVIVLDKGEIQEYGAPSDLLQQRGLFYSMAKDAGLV

T2 sequence (Q92887 whole entry): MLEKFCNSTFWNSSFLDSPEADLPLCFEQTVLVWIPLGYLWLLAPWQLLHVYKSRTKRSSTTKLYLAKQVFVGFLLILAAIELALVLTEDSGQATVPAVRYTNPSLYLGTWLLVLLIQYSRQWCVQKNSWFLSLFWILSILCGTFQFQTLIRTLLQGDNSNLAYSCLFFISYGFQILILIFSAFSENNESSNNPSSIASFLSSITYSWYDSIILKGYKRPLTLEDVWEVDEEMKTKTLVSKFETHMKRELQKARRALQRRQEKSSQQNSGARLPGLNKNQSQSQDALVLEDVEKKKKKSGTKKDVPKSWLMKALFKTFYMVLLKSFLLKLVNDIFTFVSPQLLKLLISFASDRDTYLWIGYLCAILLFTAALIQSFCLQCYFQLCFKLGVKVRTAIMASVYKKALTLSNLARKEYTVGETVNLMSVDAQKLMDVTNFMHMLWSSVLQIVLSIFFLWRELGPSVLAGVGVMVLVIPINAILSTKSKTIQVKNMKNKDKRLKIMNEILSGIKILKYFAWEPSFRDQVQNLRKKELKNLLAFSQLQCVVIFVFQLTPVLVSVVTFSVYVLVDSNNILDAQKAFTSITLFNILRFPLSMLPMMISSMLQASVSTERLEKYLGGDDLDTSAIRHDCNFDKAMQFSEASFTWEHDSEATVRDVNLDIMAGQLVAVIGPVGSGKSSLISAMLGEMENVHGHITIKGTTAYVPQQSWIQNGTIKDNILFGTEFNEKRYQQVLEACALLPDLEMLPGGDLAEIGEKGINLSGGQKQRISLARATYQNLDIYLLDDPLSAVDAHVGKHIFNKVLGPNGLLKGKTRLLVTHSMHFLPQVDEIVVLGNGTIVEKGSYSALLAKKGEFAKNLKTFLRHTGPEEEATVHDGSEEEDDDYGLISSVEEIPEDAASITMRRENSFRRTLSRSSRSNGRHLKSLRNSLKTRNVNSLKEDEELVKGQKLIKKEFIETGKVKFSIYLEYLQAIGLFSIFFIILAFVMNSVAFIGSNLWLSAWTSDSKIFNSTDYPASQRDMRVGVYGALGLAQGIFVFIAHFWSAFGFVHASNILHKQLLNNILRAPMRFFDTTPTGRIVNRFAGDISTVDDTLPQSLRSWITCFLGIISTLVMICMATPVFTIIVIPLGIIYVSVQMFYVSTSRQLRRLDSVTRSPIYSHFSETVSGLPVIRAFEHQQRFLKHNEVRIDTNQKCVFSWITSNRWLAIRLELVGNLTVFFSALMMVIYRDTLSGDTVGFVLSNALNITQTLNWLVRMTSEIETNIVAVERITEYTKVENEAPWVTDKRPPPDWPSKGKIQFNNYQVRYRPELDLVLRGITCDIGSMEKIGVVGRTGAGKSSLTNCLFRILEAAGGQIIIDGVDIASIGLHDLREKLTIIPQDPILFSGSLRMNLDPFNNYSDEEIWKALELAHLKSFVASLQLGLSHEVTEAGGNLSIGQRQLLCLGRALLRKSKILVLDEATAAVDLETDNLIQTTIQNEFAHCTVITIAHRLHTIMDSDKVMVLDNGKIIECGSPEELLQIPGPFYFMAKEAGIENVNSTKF
Sequence of ATP-binding cassette sub-family C member 3 (O15438 whole entry): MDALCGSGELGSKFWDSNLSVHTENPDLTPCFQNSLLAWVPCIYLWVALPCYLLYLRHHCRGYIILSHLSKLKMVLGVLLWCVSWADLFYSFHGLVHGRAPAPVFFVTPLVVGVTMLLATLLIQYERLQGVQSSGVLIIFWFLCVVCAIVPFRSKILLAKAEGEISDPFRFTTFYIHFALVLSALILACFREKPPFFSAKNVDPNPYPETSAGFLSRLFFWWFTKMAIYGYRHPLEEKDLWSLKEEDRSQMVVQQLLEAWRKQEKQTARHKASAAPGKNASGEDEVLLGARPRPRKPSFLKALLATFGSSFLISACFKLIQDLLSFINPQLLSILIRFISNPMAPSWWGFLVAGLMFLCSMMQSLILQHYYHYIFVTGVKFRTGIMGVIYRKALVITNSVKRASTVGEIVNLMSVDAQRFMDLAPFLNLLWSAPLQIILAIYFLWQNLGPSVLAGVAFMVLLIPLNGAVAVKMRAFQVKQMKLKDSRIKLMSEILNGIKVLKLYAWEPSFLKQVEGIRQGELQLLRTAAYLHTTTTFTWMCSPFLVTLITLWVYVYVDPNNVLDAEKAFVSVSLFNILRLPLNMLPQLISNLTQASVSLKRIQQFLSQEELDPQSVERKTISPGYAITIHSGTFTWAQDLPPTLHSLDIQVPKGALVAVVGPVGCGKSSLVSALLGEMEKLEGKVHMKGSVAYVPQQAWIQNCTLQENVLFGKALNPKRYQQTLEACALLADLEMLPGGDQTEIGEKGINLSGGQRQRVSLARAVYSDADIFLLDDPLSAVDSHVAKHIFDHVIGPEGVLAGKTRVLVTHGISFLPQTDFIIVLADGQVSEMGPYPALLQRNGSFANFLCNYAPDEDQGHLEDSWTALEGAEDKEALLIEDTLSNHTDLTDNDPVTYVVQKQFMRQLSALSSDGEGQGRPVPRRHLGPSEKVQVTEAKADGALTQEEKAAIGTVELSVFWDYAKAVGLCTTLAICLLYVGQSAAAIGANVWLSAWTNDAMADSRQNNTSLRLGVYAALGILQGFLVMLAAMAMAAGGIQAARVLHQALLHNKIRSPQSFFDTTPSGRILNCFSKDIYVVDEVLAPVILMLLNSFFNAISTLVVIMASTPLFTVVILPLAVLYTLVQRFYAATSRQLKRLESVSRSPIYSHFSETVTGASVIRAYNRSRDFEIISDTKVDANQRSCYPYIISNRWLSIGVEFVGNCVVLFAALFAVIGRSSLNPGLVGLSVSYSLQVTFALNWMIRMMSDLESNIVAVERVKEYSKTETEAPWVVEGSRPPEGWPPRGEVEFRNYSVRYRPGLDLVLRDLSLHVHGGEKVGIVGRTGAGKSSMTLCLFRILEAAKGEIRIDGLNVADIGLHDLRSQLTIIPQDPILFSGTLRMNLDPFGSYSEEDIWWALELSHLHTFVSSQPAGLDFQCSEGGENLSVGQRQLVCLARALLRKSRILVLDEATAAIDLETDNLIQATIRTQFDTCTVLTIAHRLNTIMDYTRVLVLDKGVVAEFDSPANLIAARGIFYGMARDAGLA

Which Ki [1] does the source give for `O=C(O)[C@H]1O[C@@H](Oc2cc3oc(-c4ccc(O)cc4)cc(=O)c3c(O)c2O)[C@H](O)[C@@H](O)[C@@H]1O` [SCUTELLARIN] here?
Its Ki is 59.5 µM.

What about the Km [1] of the same molecule?
Its Km is 643 µM.

What about the Vmax [1] of the same molecule?
The Vmax was 11.9 nmol/min/mg.

And the Vmax/Km [2]?
Its Vmax/Km is 18.5 µL/min/mg.

What about the Ki (Liver microsome [3]) of the same molecule?
Its Ki is 133 µM.

What about the Km (Liver microsome [3]) of the same molecule?
The Km was 62.4 µM.

And the Vmax (Liver microsome [3])?
Its Vmax is 0.736 nmol/min/mg.

And the Vmax/Km (Liver microsome [4])?
The Vmax/Km was 11.8 µL/min/mg.

What about the Ki [5] of the same molecule?
Its Ki is 79 µM.

And the Km [5]?
The Km was 349 µM.

And the Vmax [5]?
The Vmax was 6.6 nmol/min/mg.

What about the Vmax/Km [6] of the same molecule?
The Vmax/Km was 18.9 µL/min/mg.

And the Ki (Liver microsome [7])?
The Ki was 302 µM.

And the Km (Liver microsome [7])?
The Km was 15.2 µM.

And the Vmax (Liver microsome [7])?
Its Vmax is 3.1 nmol/min/mg.

And the Vmax/Km (Liver microsome [8])?
Its Vmax/Km is 204 µL/min/mg.

What about the Ratio [9] of the same molecule?
Its Ratio is 57.5.

What about the Ratio [10] of the same molecule?
The Ratio was 3.07.

What about the Ki [11] of the same molecule?
The Ki was 208 µM.

What about the IC50 [12] of the same molecule?
Its IC50 is 75 µM.

And the IC50 [13]?
Its IC50 is 10 µM.

What about the “inhibition (INH)” value [14] of the same molecule?
Its value is “Not Active”.

And the “inhibition (INH)” value [15]?
Its value is “Active”.

For `O=C(O)[C@H]1O[C@@H](Oc2c(O)cc3oc(-c4ccc(O)cc4)cc(=O)c3c2O)[C@H](O)[C@@H](O)[C@@H]1O`, which Ki [1] is on record?
The Ki was 11.8 µM.

What about the Km [1] of the same molecule?
Its Km is 156 µM.

What about the Vmax [1] of the same molecule?
The Vmax was 17.1 nmol/min/mg.

What about the Vmax/Km [2] of the same molecule?
Its Vmax/Km is 110 µL/min/mg.

And the Ki (Liver microsome [3])?
The Ki was 24 µM.

What about the Km (Liver microsome [3]) of the same molecule?
Its Km is 123 µM.

What about the Vmax (Liver microsome [3]) of the same molecule?
The Vmax was 15.6 nmol/min/mg.

And the Vmax/Km (Liver microsome [4])?
Its Vmax/Km is 127 µL/min/mg.

What about the Ki [5] of the same molecule?
Its Ki is 79.2 µM.

What about the Km [5] of the same molecule?
Its Km is 41.1 µM.

And the Vmax [5]?
Its Vmax is 1.23 nmol/min/mg.

What about the Vmax/Km [6] of the same molecule?
The Vmax/Km was 30 µL/min/mg.

What about the Ki (Liver microsome [7]) of the same molecule?
Its Ki is 78.3 µM.

And the Km (Liver microsome [7])?
Its Km is 21.2 µM.

And the Vmax (Liver microsome [7])?
Its Vmax is 1.94 nmol/min/mg.

And the Vmax/Km (Liver microsome [8])?
The Vmax/Km was 91.3 µL/min/mg.

And the Ratio [9]?
Its Ratio is 57.5.

And the Ratio [10]?
Its Ratio is 3.07.

And the Ki [11]?
The Ki was 242 µM.

And the Vmax ([11]; human, recombinant enzyme, 25 min)?
The Vmax was 0.221 nmol/min/mg.

And the IC50 [12]?
Its IC50 is 50 µM.

What about the IC50 [13] of the same molecule?
The IC50 was 20 µM.

What about the “inhibition (INH)” value [14] of the same molecule?
Its value is “Active”.

And the “inhibition (INH)” value [15]?
The value was “Active”.
